In BindingDB's records for doi:10.1021/jm020951i (Uppsala University, 2003):
pKi: −log10 of the molar value.

Columns and labels:
Experiment in all cases: Enzyme Inhibition Measurements
Plasmepsin II = Plasmepsin II (Plasmodium falciparum (isolate HB3), UniProt P46925); settings: pH 4.5; 22 °C
Description: (§1) Enzyme activities were assayed by monitoring the hydrolysis of substrate in the presence or absence of inhibitor compounds. The hydrolysis was recorded as the increase in fluorescence intensity over a 10 min time period. IC50 values were obtained by assuming competitive inhibition and fitting the dose response data to the equation (Vi/V0) =1/ (1 + [I]/IC50)). The Ki was calculated by using Ki = IC50/ (1 + [S]/Km), and a Km value determined according to Michaelis-Menten.

Plasmepsin I = Plasmepsin I (Plasmodium falciparum, UniProt P39898); settings: pH 4.5; 22 °C
Description: as §1

Cathepsin D = Cathepsin D (Homo sapiens, UniProt P07339)
Description: as §1

Plasmepsin I, sequence (P39898 whole entry): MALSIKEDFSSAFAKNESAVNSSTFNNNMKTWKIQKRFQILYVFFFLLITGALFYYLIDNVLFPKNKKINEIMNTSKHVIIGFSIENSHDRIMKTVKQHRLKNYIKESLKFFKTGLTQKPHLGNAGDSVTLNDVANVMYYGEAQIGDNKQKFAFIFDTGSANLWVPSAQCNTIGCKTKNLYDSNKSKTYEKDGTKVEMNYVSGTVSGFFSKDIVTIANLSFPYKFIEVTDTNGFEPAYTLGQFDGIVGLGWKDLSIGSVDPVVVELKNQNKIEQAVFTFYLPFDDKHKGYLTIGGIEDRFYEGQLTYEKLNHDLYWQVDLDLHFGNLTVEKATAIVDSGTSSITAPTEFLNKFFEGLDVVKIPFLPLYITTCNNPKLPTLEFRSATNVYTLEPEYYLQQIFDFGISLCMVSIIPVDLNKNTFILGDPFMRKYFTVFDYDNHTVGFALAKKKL
Plasmepsin II, sequence (P46925 whole entry): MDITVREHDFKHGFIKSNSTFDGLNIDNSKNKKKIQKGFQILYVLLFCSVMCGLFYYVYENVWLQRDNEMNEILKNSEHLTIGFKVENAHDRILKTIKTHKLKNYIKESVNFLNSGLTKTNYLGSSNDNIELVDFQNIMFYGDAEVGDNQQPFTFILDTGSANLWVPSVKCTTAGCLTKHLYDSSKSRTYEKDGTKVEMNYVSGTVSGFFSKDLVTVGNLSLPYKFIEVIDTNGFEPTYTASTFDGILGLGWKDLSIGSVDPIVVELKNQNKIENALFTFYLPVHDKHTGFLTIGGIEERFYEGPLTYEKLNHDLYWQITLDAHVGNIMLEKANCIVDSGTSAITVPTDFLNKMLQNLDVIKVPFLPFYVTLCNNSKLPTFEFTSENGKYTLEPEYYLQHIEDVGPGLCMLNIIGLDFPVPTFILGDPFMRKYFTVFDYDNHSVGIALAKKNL
Cathepsin D, sequence (P07339 65-162 limits assumed): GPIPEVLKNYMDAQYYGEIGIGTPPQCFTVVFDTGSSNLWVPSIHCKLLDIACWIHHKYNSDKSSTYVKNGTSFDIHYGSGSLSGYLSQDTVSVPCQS
Cathepsin D, sequence (P07339 169-412 limits assumed): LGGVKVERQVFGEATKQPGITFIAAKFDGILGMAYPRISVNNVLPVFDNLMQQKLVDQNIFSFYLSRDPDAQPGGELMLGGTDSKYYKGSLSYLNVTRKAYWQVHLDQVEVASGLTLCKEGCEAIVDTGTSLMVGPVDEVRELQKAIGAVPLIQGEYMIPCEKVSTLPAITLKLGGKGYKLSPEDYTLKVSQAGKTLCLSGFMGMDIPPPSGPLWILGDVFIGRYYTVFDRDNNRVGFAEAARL

Compound	pKi (Cathepsin D)	pKi (Plasmepsin II)	pKi (Plasmepsin I)
CC(C)[C@H](NC(=O)c1ccccn1)C(=O)N[C@@H](Cc1ccccc1)[C@@H](O)CN[C@H](Cc1ccccc1)C(N)=O [(2R,5S,6R)-3-Aza-2-benzyl-5-hydroxy-7-phenyl-6-[(picolyl-L-valinyl)amino]heptanoyl Amide]		5.46	5.10
CC(C)C[C@H](NC[C@H](O)[C@H](Cc1ccccc1)NC(=O)[C@@H](NC(=O)c1ccccn1)C(C)C)C(N)=O [(2S)-2-{[(2S,3S)-2-hydroxy-3-[(2S)-3-methyl-2-(pyridin-2-ylformamido)butanamido]-4-phenylbutyl]amino}-4-methylpentanamide]		5.48	5.54
CC(C)[C@H](NC(=O)c1ccccn1)C(=O)N[C@@H](Cc1ccccc1)[C@@H](O)CN[C@@H](Cc1ccccc1)C(N)=O [(2S,5S,6R)-3-Aza-2-benzyl-5-hydroxy-7-phenyl-6-[(picolyl-L-valinyl)amino]heptanoyl Amide]		5.49	5.68

Further lines, with some results ahead:

pKi (Cathepsin D)	Compound	pKi (Plasmepsin II)	pKi (Plasmepsin I)
5.77	Cc1ccc(-c2ccc(C[C@H](NC[C@H](O)[C@H](Cc3ccccc3)NC(=O)[C@@H](NC(=O)c3ccccn3)C(C)C)C(N)=O)cc2)cc1 [(2S)-N-[(2S,3S)-4-{[(1S)-1-carbamoyl-2-[4-(4-methylphenyl)phenyl]ethyl]amino}-3-hydroxy-1-phenylbutan-2-yl]-3-methyl-2-(pyridin-2-ylformamido)butanamide]		
6.00	CC(C)[C@H](NC(=O)c1ccccn1)C(=O)N[C@@H](Cc1ccccc1)[C@@H](O)CN[C@@H](Cc1ccc(-c2cccc(N)c2)cc1)C(N)=O [(2S,5S,6R)-3-Aza-2-[p-(m-aminophenyl)benzyl]-5-hydroxy-7-phenyl-6-[(picolyl-L-valinyl)amino]heptanoyl Amide]		
5.77	COc1ccccc1-c1ccc(C[C@H](NC[C@H](O)[C@H](Cc2ccccc2)NC(=O)[C@@H](NC(=O)c2ccccn2)C(C)C)C(N)=O)cc1 [(2S,5S,6R)-3-Aza-5-hydroxy-2-[p-(o-methoxyphenyl)-benzyl]-7-phenyl-6-[(picolyl-L-valinyl)amino]heptanoyl Amide]		
